Data as given in ChEMBL document CHEMBL1201862, “PubChem BioAssay data set” (2004).
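Following 48 hours of exposure in 96-well plates, responses at five concentrations were used to interpolate endpoints linearly. GI50 = concentration required for 50% inhibition of growth.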 Calls of active or inactive are those of the source. No stated cut-off is given here; in the data, active = GI50 up to about 1.1 µM and inactive = higher.

What was measured:
Assay in all cases: NCI-60 cell line screen, 48 h
OVCAR-8 = system: OVCAR-8
LOX IMVI = system: LOX IMVI
UACC-62 = system: UACC-62
ACHN = system: ACHN
OVCAR-3 = system: OVCAR-3
SN12C = system: SN12C
DU-145 = system: DU-145
SK-OV-3 = system: SK-OV-3
HCT-116 = system: HCT-116
NCI-H23 = system: NCI-H23
RPMI-8226 = system: RPMI-8226
KM12 = system: KM12
UACC-257 = system: UACC-257
MOLT-4 = system: MOLT-4
U-251 = system: U-251
HOP-92 = system: HOP-92
CCRF-CEM = system: CCRF-CEM
NCI-H226 = system: NCI-H226
A498 = system: A498
NCI-H522 = system: NCI-H522

Measured: GI50

CC(C)=CCC[C@@H](C)C1=C(O)C(=O)C(C)=C(N)C1=O
inactive: OVCAR-8 17.9 µM | LOX IMVI 15.7 µM | UACC-62 15.6 µM | ACHN 18 µM | OVCAR-3 27.9 µM | SN12C 35.5 µM | DU-145 42.7 µM | SK-OV-3 27.3 µM | HCT-116 45.1 µM | NCI-H23 27.3 µM | RPMI-8226 27.3 µM | KM12 23.3 µM | UACC-257 38.5 µM | MOLT-4 6.5 µM | U-251 34.8 µM | HOP-92 53.8 µM | CCRF-CEM 6.11 µM | NCI-H226 20.8 µM | A498 39.8 µM

Cc1ccc(C(=O)Nc2ccc(CP(=O)(O)O)cc2CP(=O)(O)O)cc1NC(=O)Nc1cc(C(=O)Nc2ccc(CP(=O)(O)O)cc2CP(=O)(O)O)ccc1C
inactive: OVCAR-8 > 100 µM | LOX IMVI > 100 µM | UACC-62 > 100 µM | ACHN > 100 µM | OVCAR-3 > 100 µM | SN12C > 100 µM | DU-145 > 100 µM | SK-OV-3 > 100 µM | HCT-116 > 100 µM | NCI-H522 64.9 µM | NCI-H23 > 100 µM | RPMI-8226 > 100 µM | KM12 > 100 µM | UACC-257 > 100 µM | U-251 > 100 µM | CCRF-CEM > 100 µM | NCI-H226 > 100 µM | A498 > 100 µM

C=CCC1=CC2(OC)C(=O)C(OC)(OC)C1C1C(OC)(OC)C(=O)C(OC)=CC12CC=C (configuration not stated)
inactive: OVCAR-8 > 100 µM | LOX IMVI > 100 µM | UACC-62 > 100 µM | ACHN > 100 µM | OVCAR-3 > 100 µM | SN12C > 100 µM | DU-145 > 100 µM | SK-OV-3 67.8 µM | HCT-116 > 100 µM | NCI-H522 > 100 µM | NCI-H23 > 100 µM | RPMI-8226 > 100 µM | KM12 > 100 µM | UACC-257 > 100 µM | MOLT-4 > 100 µM | U-251 > 100 µM | HOP-92 > 100 µM | CCRF-CEM > 100 µM | A498 > 100 µM

Cc1ccc([N+](=O)[O-])cc1NC1=NCCO1
inactive: OVCAR-8 > 100 µM | LOX IMVI > 100 µM | UACC-62 > 100 µM | ACHN > 100 µM | OVCAR-3 > 100 µM | SN12C > 100 µM | DU-145 > 100 µM | SK-OV-3 > 100 µM | HCT-116 > 100 µM | NCI-H522 > 100 µM | NCI-H23 > 100 µM | RPMI-8226 > 100 µM | KM12 > 100 µM | UACC-257 > 100 µM | MOLT-4 > 100 µM | U-251 > 100 µM | CCRF-CEM > 100 µM | NCI-H226 > 100 µM | A498 > 100 µM

C=CC(O)C#Cc1cnc(OC)nc1OC (configuration not stated)
inactive: OVCAR-8 > 100 µM | LOX IMVI > 100 µM | UACC-62 > 100 µM | ACHN > 100 µM | OVCAR-3 > 100 µM | SN12C > 100 µM | DU-145 > 100 µM | HCT-116 82.8 µM | NCI-H522 54.2 µM | NCI-H23 > 100 µM | KM12 86.7 µM | UACC-257 > 100 µM | MOLT-4 32.6 µM | U-251 > 100 µM | HOP-92 > 100 µM | CCRF-CEM 17.1 µM | NCI-H226 30.1 µM | A498 16.3 µM

Clc1c(Cl)c(Cl)c2c(nnn2C2CCCO2)c1Cl (configuration not stated)
inactive: OVCAR-8 29.3 µM | UACC-62 44.4 µM | OVCAR-3 34.6 µM | SN12C 40.7 µM | DU-145 51.5 µM | SK-OV-3 75.9 µM | HCT-116 39.1 µM | NCI-H522 23.8 µM | NCI-H23 19.6 µM | UACC-257 35.6 µM | MOLT-4 23.2 µM | U-251 33.8 µM | CCRF-CEM 26.4 µM | NCI-H226 34.4 µM | A498 27.5 µM

C=CCOC(=O)Cn1cnc2c(N)ncnc21
inactive: OVCAR-8 > 100 µM | LOX IMVI > 100 µM | UACC-62 > 100 µM | ACHN > 100 µM | SN12C > 100 µM | DU-145 > 100 µM | SK-OV-3 > 100 µM | HCT-116 > 100 µM | NCI-H23 > 100 µM | RPMI-8226 > 100 µM | KM12 > 100 µM | UACC-257 > 100 µM | MOLT-4 > 100 µM | U-251 > 100 µM | CCRF-CEM > 100 µM | NCI-H226 > 100 µM | A498 > 100 µM

CCOc1ccc(Nc2nc3c(s2)C(=O)c2ccccc2C3=O)cc1
inactive: LOX IMVI 3.76 µM | UACC-62 2.24 µM | ACHN 14.5 µM | OVCAR-3 3.04 µM | SN12C 3.76 µM | DU-145 14.2 µM | SK-OV-3 19.7 µM | HCT-116 13.2 µM | NCI-H522 7.5 µM | NCI-H23 8.13 µM | RPMI-8226 3.85 µM | KM12 13.7 µM | UACC-257 10.4 µM | MOLT-4 5.08 µM | U-251 7.64 µM | HOP-92 12.3 µM | CCRF-CEM 7.82 µM | A498 15.8 µM

CN(C)c1ccc(/C=C2\C[C@H]3[C@@H]4CC=C5C[C@@H](O)CC[C@]5(C)[C@H]4CC[C@]3(C)C2=O)cc1
inactive: OVCAR-8 4.88 µM | LOX IMVI 13.2 µM | UACC-62 17.4 µM | ACHN 16.2 µM | OVCAR-3 24.8 µM | SN12C 20.9 µM | DU-145 44 µM | SK-OV-3 25.8 µM | HCT-116 29.2 µM | NCI-H23 25.6 µM | RPMI-8226 66.8 µM | KM12 38.5 µM | UACC-257 19.9 µM | MOLT-4 79.3 µM | U-251 12.9 µM | NCI-H226 20 µM | A498 20.9 µM

O=C(Nc1ccc2oc(=O)c(C(=O)O)cc2c1)Oc1ccccc1
inactive: OVCAR-8 > 100 µM | LOX IMVI > 100 µM | UACC-62 > 100 µM | ACHN > 100 µM | OVCAR-3 > 100 µM | SN12C > 100 µM | DU-145 > 100 µM | SK-OV-3 > 100 µM | HCT-116 > 100 µM | NCI-H522 > 100 µM | NCI-H23 > 100 µM | RPMI-8226 > 100 µM | KM12 > 100 µM | UACC-257 > 100 µM | MOLT-4 > 100 µM | U-251 > 100 µM | HOP-92 > 100 µM | NCI-H226 > 100 µM | A498 > 100 µM

CC(=O)OCC1OC(n2c3c(cc(C#N)c2=S)CCC3)C(OC(C)=O)C(OC(C)=O)C1OC(C)=O (configuration not stated)
inactive: OVCAR-8 > 100 µM | LOX IMVI > 100 µM | UACC-62 > 100 µM | ACHN > 100 µM | SN12C > 100 µM | DU-145 > 100 µM | HCT-116 > 100 µM | NCI-H522 > 100 µM | NCI-H23 > 100 µM | RPMI-8226 > 100 µM | KM12 > 100 µM | UACC-257 > 100 µM | MOLT-4 33.9 µM | U-251 > 100 µM | HOP-92 > 100 µM | CCRF-CEM > 100 µM | NCI-H226 > 100 µM | A498 > 100 µM
